{"source": "paper PMC9246773", "about": "“Assessing the Activity of Antimicrobial Peptides Against Common Marine Bacteria Located in Rotifer (Brachionus plicatilis) Cultures” (Probiotics and Antimicrobial Proteins, 2022)", "type_in_all_cases": "cell-based", "key": {"Vibrio alginolyticus [1]": {"test_system": "Vibrio alginolyticus", "details": "48 h", "procedure": "(§1) A range of bacterial species with the potential to be transferred to developing fish larvae as pathogens or probiotics were selected for use in the study (Table 2). Bacterial isolates were stored at −80 °C and thawed, and 25 µL of the isolates was spread onto marine salt agar (MSA) media. All isolates were incubated at 25 °C for 18 h to reach mid-log growth phase. All isolates were sub-cultured and identified using mass spectrometry (MALDI-TOF) using the BioTyper and MBT 8468 library (Bruker Pty Ltd). The isolate Tenacibaculum discolor was plated on Anacker and Oradal’s marine (AOM) media, incubated for 48 h and identified using the aforementioned method. Bacterial isolates were suspended in sterile saline (0.75% NaCl w/v) to 0.5 McFarland standard. […] The bacterial isolates T. discolor and Pseudoalteromonas sp. require marine salts to grow and were not added to MHB (0‰). The isolate T. discolor requires low nutrients to grow, therefore, a separate MHB (25‰) was prepared at a diluted ratio of 1 part MHB and 7 parts artificial seawater (25‰).\n(§2) The protocol was followed to determine the minimum inhibitory concentration (MIC) of the selected peptides. Two MIC assays were performed, firstly to determine whether each peptide precipitated in MHB and thereby required acetic acid adjustments (supplementary materials) and secondly, to determine the antimicrobial activity of each peptide in artificial seawater (25‰). Peptide stock solutions (1.3 mg mL^−1) were made by diluting the peptides in sterile deionised water. MHB was made with deionised water to reach a concentration of approaching 0‰ and artificial sea salts (Sigma-Aldrich® S9883) to reach a salinity of 25‰.\n(§3) Once the acetic acid requirement for each peptide was determined (Table 3), the antimicrobial activity of each peptide was tested at a salinity of 0‰ and 25‰ for all bacterial isolates. A stock solution for peptides that required acetic acid was prepared by a 1:2 dilution in acetic acid (0.02% acetic acid w/v, containing 0.4% BSA) solution. In a 96-well polypropylene microtitre plates (Costar® 3879), 100 µL of this peptide stock was added to the first well for each bacterial isolate tested and serially diluted twofold with acetic acid (0.01% acetic acid w/v, containing 0.2% BSA). From each well, 10 µL of each peptide concentration was added to the corresponding wells of a new 96-well microtitre plate. From each of the bacterial suspensions (0‰), 90 µL was added to each well. […] Twofold serial dilutions were made with MHB (0‰). From each of the bacterial suspensions (0‰), 50 µL was added to each well. The same method was followed for testing peptides in MHB at 25‰. All peptide concentrations ranged from 0.125 to 65 µg mL^−1, and the bacterial suspension in each well was approximately 5 × 10^5 CFU mL^−1. The different salinities were used to compare any differences in antimicrobial activity in 0‰ and 25‰ water. […] Each bacterium was trialled in duplicate."}, "Tenacibaculum discolor": {"test_system": "Tenacibaculum discolor", "details": "48 h", "procedure": "as §1, §2, §3"}, "Vibrio rotiferianus [2]": {"test_system": "Vibrio rotiferianus", "details": "48 h", "procedure": "as §1, §2, §3"}, "Shewanella sp. [3]": {"test_system": "Shewanella sp.", "details": "48 h", "procedure": "as §1, §2, §3"}, "[4]": {"test_system": "Vibrio harveyi (ATCC 35084)", "details": "ATCC 35084, 48 h", "procedure": "as §1, §2, §3"}, "Vibrio harveyi [5]": {"test_system": "Vibrio harveyi", "details": "48 h", "procedure": "as §1, §2, §3"}, "Vibrio scophthalmi [6]": {"test_system": "Vibrio scophthalmi", "details": "48 h", "procedure": "as §1, §2, §3"}, "[7]": {"test_system": "Escherichia coli (ATCC 25922)", "details": "ATCC 25922, 48 h", "procedure": "as §1, §2, §3"}, "Pseudoalteromonas sp.": {"test_system": "Pseudoalteromonas sp.", "details": "48 h", "procedure": "as §1, §2, §3"}, "Vibrio alginolyticus [8]": {"test_system": "Vibrio alginolyticus", "details": "48 h", "procedure": "as §1, §2\n(§4) A broth microdilution protocol was followed to test whether the AMPs precipitated in MHB. The isolates T. discolor and Pseudoalteromonas were excluded from this assay because they required marine salts for growth. The peptides HHC10 and HHC36 previously required acetic acid adjustments according to [63] and were not trialled in this assay. To test if peptides required acetic acid, each peptide was diluted 1:2 in acetic acid (0.02% acetic acid w/v, containing 0.4% BSA) solution. In a 96-well polypropylene microtitre plates (Costar® 3879), 100 µL of this peptide stock was added to the first well for each bacterial isolate tested and serially diluted 2-fold with acetic acid (0.01% acetic acid w/v, containing 0.2% BSA). From each well, 10 µL of each peptide concentration was added to the corresponding wells of a new 96-well microtitre plate. From each of the bacterial suspensions in MHB (0‰), 90 µL was added to each well. […] From each of the bacterial suspensions in MHB (0‰), 50 µL was added to each well. All peptide concentrations ranged from 0.125 - 65µg mL^-1 and the bacterial suspension in each well was approximately 5 × 10^5 CFU mL^-1. Antimicrobial peptides that have an MIC value two or more dilutions higher in the assay with no acetic acid, compared to the assay with acetic acid, require acetic acid adjustments. The 96-well plates were incubated at 25 °C and read at 24 and 48 hours. The MIC was visually determined using a Sensititre™ Vizion™ Digital MIC Viewing System (Thermo Scientific™), and the lowest AMP concentration that had no bacterial growth was recorded as the MIC after 48 hours. Each bacterium was trialled in duplicate.", "remark": "listed apart in the source"}, "Vibrio rotiferianus [9]": {"test_system": "Vibrio rotiferianus", "details": "48 h", "procedure": "as §1, §2, §4", "remark": "listed apart in the source"}, "Shewanella sp. [10]": {"test_system": "Shewanella sp.", "details": "48 h", "procedure": "as §1, §2, §4", "remark": "listed apart in the source"}, "[11]": {"test_system": "Vibrio harveyi (ATCC 35084)", "details": "ATCC 35084, 48 h", "procedure": "as §1, §2, §4", "remark": "listed apart in the source"}, "Vibrio harveyi [12]": {"test_system": "Vibrio harveyi", "details": "48 h", "procedure": "as §1, §2, §4", "remark": "listed apart in the source"}, "Vibrio scophthalmi [13]": {"test_system": "Vibrio scophthalmi", "details": "48 h", "procedure": "as §1, §2, §4", "remark": "listed apart in the source"}, "[14]": {"test_system": "Escherichia coli (ATCC 25922)", "details": "ATCC 25922, 48 h", "procedure": "as §1, §2, §4", "remark": "listed apart in the source"}}, "note": "No end group written: not given here.", "data": [{"substance": "KRWWKWWRR-NH2 [HHC36]", "values": [{"measurement": "MIC V. alginolyticus, salinity 0‰", "setting": "Vibrio alginolyticus [1]", "result": "> 65", "unit": "µg/mL"}, {"measurement": "MIC V. alginolyticus, salinity 25‰", "setting": "Vibrio alginolyticus [1]", "result": "> 65", "unit": "µg/mL"}, {"measurement": "MIC T. discolor, salinity 25‰", "setting": "Tenacibaculum discolor", "result": "> 65", "unit": "µg/mL"}, {"measurement": "MIC V. rotiferianus, salinity 0‰", "setting": "Vibrio rotiferianus [2]", "result": "> 65", "unit": "µg/mL"}, {"measurement": "MIC V. rotiferianus, salinity 25‰", "setting": "Vibrio rotiferianus [2]", "result": "> 65", "unit": "µg/mL"}, {"measurement": "MIC Shewanella sp., salinity 25‰", "setting": "Shewanella sp. [3]", "result": "> 65", "unit": "µg/mL"}, {"measurement": "MIC V. harveyi ATCC 35084, salinity 0‰", "setting": "[4]", "result": 32.5, "unit": "µg/mL"}, {"measurement": "MIC V. harveyi ATCC 35084, salinity 25‰", "setting": "[4]", "result": "> 65", "unit": "µg/mL"}, {"measurement": "MIC V. harveyi, salinity 0‰", "setting": "Vibrio harveyi [5]", "result": 32.5, "unit": "µg/mL"}, {"measurement": "MIC V. harveyi, salinity 25‰", "setting": "Vibrio harveyi [5]", "result": "> 65", "unit": "µg/mL"}, {"measurement": "MIC V. scophthalmi, salinity 0‰", "setting": "Vibrio scophthalmi [6]", "result": 2.03, "unit": "µg/mL"}, {"measurement": "MIC V. scophthalmi, salinity 25‰", "setting": "Vibrio scophthalmi [6]", "result": "> 65", "unit": "µg/mL"}, {"measurement": "MIC E. coli ATCC 25922, salinity 0‰", "setting": "[7]", "result": 2.03, "unit": "µg/mL"}, {"measurement": "MIC E. coli ATCC 25922, salinity 25‰", "setting": "[7]", "result": "> 65", "unit": "µg/mL"}, {"measurement": "MIC Pseudoalteromonas sp., salinity 25‰", "setting": "Pseudoalteromonas sp.", "result": "> 65", "unit": "µg/mL"}]}, {"substance": "RRQWRGWVRIWL-NH2 [Peptide 3005]", "values": [{"measurement": "MIC V. alginolyticus, Acetic", "setting": "Vibrio alginolyticus [8]", "result": 4.06, "unit": "µg/mL"}, {"measurement": "MIC V. alginolyticus, No acetic", "setting": "Vibrio alginolyticus [8]", "result": 16.25, "unit": "µg/mL"}, {"measurement": "MIC V. rotiferianus, Acetic", "setting": "Vibrio rotiferianus [9]", "result": 4.06, "unit": "µg/mL"}, {"measurement": "MIC V. rotiferianus, No acetic", "setting": "Vibrio rotiferianus [9]", "result": 1.02, "unit": "µg/mL"}, {"measurement": "MIC Shewanella sp., Acetic", "setting": "Shewanella sp. [10]", "result": 4.06, "unit": "µg/mL"}, {"measurement": "MIC Shewanella sp., No acetic", "setting": "Shewanella sp. [10]", "result": 8.13, "unit": "µg/mL"}, {"measurement": "MIC V. harveyi ATCC 35084, Acetic", "setting": "[11]", "result": 16.25, "unit": "µg/mL"}, {"measurement": "MIC V. harveyi ATCC 35084, No acetic", "setting": "[11]", "result": 16.25, "unit": "µg/mL"}, {"measurement": "MIC V. harveyi, Acetic", "setting": "Vibrio harveyi [12]", "result": 4.06, "unit": "µg/mL"}, {"measurement": "MIC V. harveyi, No acetic", "setting": "Vibrio harveyi [12]", "result": 1.02, "unit": "µg/mL"}, {"measurement": "MIC V. scophthalmi, Acetic", "setting": "Vibrio scophthalmi [13]", "result": 1.02, "unit": "µg/mL"}, {"measurement": "MIC V. scophthalmi, No acetic", "setting": "Vibrio scophthalmi [13]", "result": 0.25, "unit": "µg/mL"}, {"measurement": "MIC E. coli ATCC 25922, Acetic", "setting": "[14]", "result": "> 65", "unit": "µg/mL"}, {"measurement": "MIC E. coli ATCC 25922, No acetic", "setting": "[14]", "result": "> 65", "unit": "µg/mL"}, {"measurement": "MIC V. alginolyticus, salinity 0‰", "setting": "Vibrio alginolyticus [1]", "result": 2.03, "unit": "µg/mL"}, {"measurement": "MIC V. alginolyticus, salinity 25‰", "setting": "Vibrio alginolyticus [1]", "result": "> 65", "unit": "µg/mL"}, {"measurement": "MIC T. discolor, salinity 25‰", "setting": "Tenacibaculum discolor", "result": "> 65", "unit": "µg/mL"}, {"measurement": "MIC V. rotiferianus, salinity 0‰", "setting": "Vibrio rotiferianus [2]", "result": 1.02, "unit": "µg/mL"}, {"measurement": "MIC V. rotiferianus, salinity 25‰", "setting": "Vibrio rotiferianus [2]", "result": "> 65", "unit": "µg/mL"}, {"measurement": "MIC Shewanella sp., salinity 0‰", "setting": "Shewanella sp. [3]", "result": 8.13, "unit": "µg/mL"}, {"measurement": "MIC Shewanella sp., salinity 25‰", "setting": "Shewanella sp. [3]", "result": 65, "unit": "µg/mL"}, {"measurement": "MIC V. harveyi ATCC 35084, salinity 0‰", "setting": "[4]", "result": 4.06, "unit": "µg/mL"}, {"measurement": "MIC V. harveyi ATCC 35084, salinity 25‰", "setting": "[4]", "result": "> 65", "unit": "µg/mL"}, {"measurement": "MIC V. harveyi, salinity 0‰", "setting": "Vibrio harveyi [5]", "result": 4.06, "unit": "µg/mL"}, {"measurement": "MIC V. harveyi, salinity 25‰", "setting": "Vibrio harveyi [5]", "result": "> 65", "unit": "µg/mL"}, {"measurement": "MIC V. scophthalmi, salinity 0‰", "setting": "Vibrio scophthalmi [6]", "result": 0.13, "unit": "µg/mL"}, {"measurement": "MIC V. scophthalmi, salinity 25‰", "setting": "Vibrio scophthalmi [6]", "result": 65, "unit": "µg/mL"}, {"measurement": "MIC E. coli ATCC 25922, salinity 0‰", "setting": "[7]", "result": 4.06, "unit": "µg/mL"}, {"measurement": "MIC E. coli ATCC 25922, salinity 25‰", "setting": "[7]", "result": "> 65", "unit": "µg/mL"}, {"measurement": "MIC Pseudoalteromonas sp., salinity 25‰", "setting": "Pseudoalteromonas sp.", "result": "> 65", "unit": "µg/mL"}]}]}
